Results: ChEMBL document CHEMBL1137131, “Synthesis and cytotoxicity of water soluble quaternary salt derivatives of camptothecin” (Bioorg Med Chem Lett, 2004)
Converted amounts (≈) assume the structure as drawn.

Legend:
Type in all cases: functional, cell-based
[1] = test system: Bel-7402; assay: In vitro cytotoxicity against Bel7402 cell line (human liver cancer) using MTT assay
[2] = test system: HCT-8; assay: In vitro cytotoxicity against HCT-8 cell line (human colon cancer) using MTT assay
[3] = test system: KB; assay: In vitro cytotoxicity against KB cell line (human epidermoid carcinoma of the nasopharynx) using MTT assay

| Structure (SMILES) | IC50 [1] [µg/mL] | IC50 [2] [µg/mL] | IC50 [3] [µg/mL] |
| --- | --- | --- | --- |
| CC[C@@]1(O)C(=O)OCc2c1cc1n(c2=O)Cc2cc3cc(OCC[n+]4cccc(C(=O)O)c4)ccc3nc2-1 | 5 | 0.27 | 0.31 |
| CC[C@@]1(O)C(=O)OCc2c1cc1n(c2=O)Cc2cc3c(CN(C)C)c(O)ccc3nc2-1.Cl [TOPOTECAN HYDROCHLORIDE] | 0.4 | 0.03 | 0.02 |
| CC[C@@]1(O)C(=O)OCc2c1cc1n(c2=O)Cc2cc3cc(OCCC[n+]4cccc(F)c4)ccc3nc2-1 | 5 | 2.02 | 3.4 |
| CC[C@@]1(O)C(=O)OCc2c1cc1n(c2=O)Cc2cc3cc(OCC[n+]4cccc(CO)c4)ccc3nc2-1 | 5 | 3.73 | 3.28 |
| CC[C@@]1(O)C(=O)OCc2c1cc1n(c2=O)Cc2cc3cc(OCCC[n+]4cccc(O)c4)ccc3nc2-1 | 3.92 | 0.03 | 0.04 |
| CC[C@@]1(O)C(=O)OCc2c1cc1n(c2=O)Cc2cc3cc(OCC[n+]4cccc(C)c4)ccc3nc2-1 | 0.47 | 1.42 | 0.63 |
| CC[C@@]1(O)C(=O)OCc2c1cc1n(c2=O)Cc2cc3cc(OCCC[n+]4cccc(C=O)c4)ccc3nc2-1 | 0.46 | 0.17 | 0.27 |
| CC[C@@]1(O)C(=O)OCc2c1cc1n(c2=O)Cc2cc3cc(OCCC[n+]4ccccc4)ccc3nc2-1 | 0.44 | 0.03 | 0.03 |
| CC[C@@]1(O)C(=O)OCc2c1cc1n(c2=O)Cc2cc3cc(OCC[n+]4ccccc4)ccc3nc2-1 | 3.53 | 0.45 | 0.33 |
| CC[C@@]1(O)C(=O)OCc2c1cc1n(c2=O)Cc2cc3cc(OCC[n+]4cccc(C=O)c4)ccc3nc2-1 | 3.73 | 0.35 | 0.34 |
| CC[C@@]1(O)C(=O)OCc2c1cc1n(c2=O)Cc2cc3cc(OCCC[n+]4cccc(C)c4)ccc3nc2-1 | 0.04 | < 0.005 | < 0.005 |
| CC[C@@]1(O)C(=O)OCc2c1cc1n(c2=O)Cc2cc3cc(OCCC[n+]4cccc(C(=O)O)c4)ccc3nc2-1 | 0.44 | 0.33 | 0.32 |
| CC[C@@]1(O)C(=O)OCc2c1cc1n(c2=O)Cc2cc3cc(OCC[n+]4cccc(C(C)=O)c4)ccc3nc2-1 | 5 | 3.01 | 3.21 |
| CC[C@@]1(O)C(=O)OCc2c1cc1n(c2=O)Cc2cc3cc(OCCC[n+]4cccc(CO)c4)ccc3nc2-1 | 2.87 | 0.34 | 0.31 |
| CC[C@@]1(O)C(=O)OCc2c1cc1n(c2=O)Cc2cc3cc(OCC[n+]4cccc(F)c4)ccc3nc2-1 | 5 | 0.38 | 0.33 |
| CC[C@@]1(O)C(=O)OCc2c1cc1n(c2=O)Cc2cc3cc(OCCC[n+]4cccc(C(C)=O)c4)ccc3nc2-1 | 5 | 3.15 | 3.13 |
| CC[C@@]1(O)C(=O)OCc2c1cc1n(c2=O)Cc2cc3cc(OCC[n+]4cccc(O)c4)ccc3nc2-1 | 0.47 | 0.42 | 0.32 |
| CC[C@@]1(O)C(=O)OCc2c1cc1n(c2=O)Cc2cc3ccccc3nc2-1 [CAMPTOTHECIN] | 2.72 (≈ 7.81 µM) | < 0.005 | < 0.005 |
